Values of other authors in PubChem BioAssay AID1259409 (Chemical Carcinogenesis Research Information System (CCRIS), 2018).

Test system: rodent chemically induced tumor inhibition, incidence and multiplicity
Assay: CCRIS tumor inhibitor studies
Settings: Route [Inhibitor]: ORAL, Species: RAT

Structure (SMILES): C=CC1=C(C)C2=CC3=NC(=C(CC(=O)O)C4=NC(=C(C)C4=C(O)O)C=c4[nH]c(c(C)c4CC)=CC1=N2)C(CCC(=O)O)C3C (stereo not given)
- tumour outcome (control, treated, inhibition, significance) (Carcinogen: 1,2-DIMETHYLHYDRAZINE [540-73-8], Dose [Inhibitor]: 0, 0.001% (W/V BASED ON TOTAL CHLORINS) IN DRINKING WATER BEGINNING 1 WK POST CARCINOGEN TREATMENT FOR THE DURATION STUD, Strain/Sex: F344/MALE, Target Tissue: Type of Lesion: COLON: TUMOR, Dose [Carcinogen]: 20 MG/KG FOR FIRST 5 WK (STUDY DURATION: 52 WK), Promoter: NONE): 20/23 (87%), 18/20 (90%), -3.4%, not significant
- tumour outcome (control, treated, inhibition, significance) (Carcinogen: 1,2-DIMETHYLHYDRAZINE [540-73-8], Dose [Inhibitor]: 0, 0.001% (W/V BASED ON TOTAL CHLORINS) IN DRINKING WATER BEGINNING 1 WK POST CARCINOGEN TREATMENT FOR THE DURATION STUD, Strain/Sex: F344/MALE, Target Tissue: Type of Lesion: SMALL INTESTINE: TUMOR, Dose [Carcinogen]: 20 MG/KG BW/WK FOR FIRST 5 WK (STUDY DURATION: 52 WK), Promoter: NONE): 12/23 (52%), 6/20 (30%), 42%, not significant
- tumour outcome (control, treated, inhibition, significance) (Carcinogen: 1,2-DIMETHYLHYDRAZINE [540-73-8], Dose [Inhibitor]: 0, 0.01% (W/V BASED ON TOTAL CHLORINS) IN DRINKING WATER BEGINNING 1 WK POST CARCINOGEN TREATMENT FOR THE DURATION STUDY, Strain/Sex: F344/MALE, Target Tissue: Type of Lesion: SMALL INTESTINE: TUMOR, Dose [Carcinogen]: 20 MG/KG BW/WK FOR FIRST 5 WK (STUDY DURATION: 52 WK), Promoter: NONE): 12/23 (52%), 11/20 (55%), -6%, not significant
- tumour outcome (control, treated, inhibition, significance) (Carcinogen: 1,2-DIMETHYLHYDRAZINE [540-73-8], Dose [Inhibitor]: 0, 0.1% (W/V BASED ON TOTAL CHLORINS) IN DRINKING WATER BEGINNING 1 WK POST CARCINOGEN TREATMENT FOR THE DURATION STUDY, Strain/Sex: F344/MALE, Target Tissue: Type of Lesion: SMALL INTESTINE: TUMOR, Dose [Carcinogen]: 20 MG/KG BW/WK FOR FIRST 5 WK (STUDY DURATION: 52 WK), Promoter: NONE): 12/23 (52%), 5/20 (25%), 52%, not significant
- tumour outcome (control, treated, inhibition, significance) (Carcinogen: 1,2-DIMETHYLHYDRAZINE [540-73-8], Strain/Sex: F344/MALE, Target Tissue: Type of Lesion: COLON: TUMOR, Dose [Carcinogen]: 20 MG/KG FOR FIRST 5 WK (STUDY DURATION: 52 WK), Promoter: NONE): 20/23 (87%), 20/20 (100%), -15%, not significant
- tumour outcome (control, treated, inhibition, significance) (Carcinogen: 2-AMINO-1-METHYL-6-PHENYL-1H-IMIDAZO[4,5-B]PYRID INE, 105650-23-5, Dose [Inhibitor]: 0, 1% IN THE DIET FOR 52 WK (STUDY DURATION: 52 WK), Strain/Sex: F344/FEMALE, Target Tissue: Type of Lesion: MAMMARY GLAND: ADENOCARCINOMA, Dose [Carcinogen]: 0.02% IN THE DIET FOR 52 WK, Promoter: NONE USED): 8/20 (40%), 3/20 (15%), 63%, not significant
- tumour outcome (control, treated, inhibition, significance) (Carcinogen: 2-AMINO-1-METHYL-6-PHENYL-1H-IMIDAZO[4,5-B]PYRID INE, 105650-23-5, Dose [Inhibitor]: 0, 1% IN THE DIET FOR 52 WK (STUDY DURATION: 52 WK), Strain/Sex: F344/FEMALE, Target Tissue: Type of Lesion: MAMMARY GLAND: FIBROADENOMA, Dose [Carcinogen]: 0.02% IN THE DIET FOR 52 WK, Promoter: NONE USED): 2/20 (10%), 0/20 (0%), 100%, not significant
- tumour outcome (control, treated, inhibition, significance) (Carcinogen: 2-AMINO-3-METHYLIMIDAZO[4,5-F]QUINOLINE [76180-96-6], Dose [Inhibitor]: 0, 0.001% (W/V BASED ON TOTAL CHLORINS) IN DRINKING WATER BEGINNING 1 WK POST CARCINOGEN TREATMENT FOR THE DURATION STUD, Strain/Sex: F344/MALE, Target Tissue: Type of Lesion: COLON: TUMOR, Dose [Carcinogen]: 0.03% IN DIET FOR FIRST 5 WK (STUDY DURATION: 52 WK), Promoter: NONE): 2/22 (9%), 2/20 (10%), -11%, not significant
- tumour outcome (control, treated, inhibition, significance) (Carcinogen: 2-AMINO-3-METHYLIMIDAZO[4,5-F]QUINOLINE [76180-96-6], Dose [Inhibitor]: 0, 0.001% (W/V BASED ON TOTAL CHLORINS) IN DRINKING WATER BEGINNING 1 WK POST CARCINOGEN TREATMENT FOR THE DURATION STUD, Strain/Sex: F344/MALE, Target Tissue: Type of Lesion: LIVER: TUMOR, Dose [Carcinogen]: 0.03% IN DIET FOR FIRST 5 WK (STUDY DURATION: 52 WK), Promoter: NONE): 16/22 (73%), 12/20 (60%), 18%, not significant
- tumour outcome (control, treated, inhibition, significance) (Carcinogen: 2-AMINO-3-METHYLIMIDAZO[4,5-F]QUINOLINE [76180-96-6], Dose [Inhibitor]: 0, 0.001% (W/V BASED ON TOTAL CHLORINS) IN DRINKING WATER BEGINNING 1 WK POST CARCINOGEN TREATMENT FOR THE DURATION STUD, Strain/Sex: F344/MALE, Target Tissue: Type of Lesion: SKIN: TUMOR, Dose [Carcinogen]: 0.03% IN DIET FOR FIRST 5 WK (STUDY DURATION: 52 WK), Promoter: NONE): 7/22 (32%), 5/20 (25%), 22%, not significant
- outcome (Carcinogen: 2-AMINO-3-METHYLIMIDAZO[4,5-F]QUINOLINE [76180-96-6], Dose [Inhibitor]: 0, 0.001% (W/V BASED ON TOTAL CHLORINS) IN DRINKING WATER BEGINNING 1 WK POST CARCINOGEN TREATMENT FOR THE DURATION STUD, Strain/Sex: F344/MALE, Target Tissue: Type of Lesion: SMALL INTESTINE: TUMOR, Dose [Carcinogen]: 0.03% IN DIET FOR FIRST 5 WK (STUDY DURATION: 52 WK), Promoter: NONE): 0/22 (0%), 1/20 (5%), -%, not significant
- tumour outcome (control, treated, inhibition, significance) (Carcinogen: 2-AMINO-3-METHYLIMIDAZO[4,5-F]QUINOLINE [76180-96-6], Dose [Inhibitor]: 0, 0.001% (W/V BASED ON TOTAL CHLORINS) IN DRINKING WATER BEGINNING 1 WK POST CARCINOGEN TREATMENT FOR THE DURATION STUD, Strain/Sex: F344/MALE, Target Tissue: Type of Lesion: ZYMBAL'S GLAND: TUMOR, Dose [Carcinogen]: 0.03% IN DIET FOR FIRST 5 WK (STUDY DURATION: 52 WK), Promoter: NONE): 5/22 (23%), 3/20 (15%), 35%, not significant
- tumour outcome (control, treated, inhibition, significance) (Carcinogen: 2-AMINO-3-METHYLIMIDAZO[4,5-F]QUINOLINE [76180-96-6], Dose [Inhibitor]: 0, 0.01% (W/V BASED ON TOTAL CHLORINS) IN DRINKING WATER BEGINNING 1 WK POST CARCINOGEN TREATMENT FOR THE DURATION STUDY, Strain/Sex: F344/MALE, Target Tissue: Type of Lesion: COLON: TUMOR, Dose [Carcinogen]: 0.03% IN DIET FOR FIRST 5 WK (STUDY DURATION: 52 WK), Promoter: NONE): 2/22 (9%), 2/20 (10%), -11%, not significant
- tumour outcome (control, treated, inhibition, significance) (Carcinogen: 2-AMINO-3-METHYLIMIDAZO[4,5-F]QUINOLINE [76180-96-6], Dose [Inhibitor]: 0, 0.01% (W/V BASED ON TOTAL CHLORINS) IN DRINKING WATER BEGINNING 1 WK POST CARCINOGEN TREATMENT FOR THE DURATION STUDY, Strain/Sex: F344/MALE, Target Tissue: Type of Lesion: LIVER: TUMOR, Dose [Carcinogen]: 0.03% IN DIET FOR FIRST 5 WK (STUDY DURATION: 52 WK), Promoter: NONE): 16/22 (73%), 10/20 (50%), 31.5%, not significant
- tumour outcome (control, treated, inhibition, significance) (Carcinogen: 2-AMINO-3-METHYLIMIDAZO[4,5-F]QUINOLINE [76180-96-6], Dose [Inhibitor]: 0, 0.01% (W/V BASED ON TOTAL CHLORINS) IN DRINKING WATER BEGINNING 1 WK POST CARCINOGEN TREATMENT FOR THE DURATION STUDY, Strain/Sex: F344/MALE, Target Tissue: Type of Lesion: SKIN: TUMOR, Dose [Carcinogen]: 0.03% IN DIET FOR FIRST 5 WK (STUDY DURATION: 52 WK), Promoter: NONE): 7/22 (32%), 7/20 (35%), -9%, not significant
